Results on 29 compounds are retold here after patent US8466290B2, “STAT3 inhibitor containing quinolinecarboxamide derivative as active ingredient” (Pharma IP General Incorporated Association, priority 2008, dated 2013).

Molecules are shown by their SMILES.

Assay [1] has as its system STAT3. The assay can be described thus: STAT3 transcription inhibition test (reporter gene method, oncostatin M stimulation). It counts as cell-based. Particulars: Homo sapiens; compound at 100 μM; STAT3 reporter HeLa stable cell line; oncostatin M 10 ng/mL, 4 hours; read-out: STAT3 transcription inhibitory activity (%). The method, then: The inhibition of STAT3 transcription was evaluated by using STAT3 reporter HeLa stable cell line (Panomics Inc., catalog No. RC0003), a cell line for the reporter gene method, and performing the following method according to the appendix included therein.
STAT3 reporter HeLa stable cell line subcultured and maintained in a Dulbecco's modified Eagle's medium (DMEM) containing 10% fetal bovine serum, 100 units/mL penicillin, and 100 μg/mL streptomycin was inoculated at a concentration of 40000 cells/well to a 96-well plate (white) and attached to the plate by overnight incubation at 37° C. under 5% CO2. After addition of each evaluation compound adjusted to various concentrations (adjusted with a DMSO solution), the cells were precultured for 1 hour. Then, oncostatin M for activating STAT3 was added at a final concentration 10 ng/mL, and the cells were further cultured at 37° C. under 5% CO2 for 4 hours. Luciferase activity derived from the cells was determined using Steady-Glo Luciferase Assay System (Promega Corp.), and STAT3 transcriptional activity scores were calculated according to the following formula: STAT3 transcriptional activity score (%)=100×(Lchem−L0)/(LDMSO−L0) Lo: luminescence intensity obtained without stimulation with oncostatin M Lchem: luminescence intensity obtained by the addition of a test sample LDMSO: luminescence intensity obtained by the addition of only a solvent for dissolving a test sample
On the technique in general: Reporter assays use an easily measured gene product as a stand-in for the process of interest.

The test system of assay [2] is MDA-MB-435S. As to the kind of experiment: MDA-MB-435S cell growth inhibitory activity. It counts as cell-based. As to conditions: Homo sapiens, compound at 20 μM, 72 hours, read-out: Cell growth inhibitory activity (%). How it is done: […] Each well was washed three times with a medium. Then, after addition of 100 μL/well of a medium and 20 μL/well of CellTiter 96 AQueous One Solution Reagent (Promega Corp.), the cells were incubated at 37° C. for 2 hours in the presence of 5% CO2.

With `O=C(Nc1nnc(-c2ccco2)o1)c1cc(-c2ccccc2O)nc2ccccc12` [Ia-38, N-[5-(2-furyl)-1,3,4-oxadiazol-2-yl]-2-(2-hydroxyphenyl)-4-quinolinecarboxamide], the inhibition at 100 µM in assay [1] is > 100%. Moreover, the inhibition at 20 µM in assay [2] is 50%.
In the same order, the values of `O=C(Nc1nnc(-c2ccco2)o1)c1cc(-c2cccc(Cl)c2)nc2ccccc12` [Ia-41, 2-(3-chlorophenyl)-N-[5-(2-furyl)-1,3,4-oxadiazol-2-yl]-4-quinolinecarboxamide] are > 100% and 55%.
As to `COc1cccc(-c2cc(C(=O)Nc3nnc(-c4ccco4)o3)c3ccccc3n2)c1` [Ia-42, N-[5-(2-furyl)-1,3,4-oxadiazol-2-yl]-2-(3-methoxyphenyl)-4-quinolinecarboxamide], the inhibition at 100 µM in assay [1] was 92%. The inhibition at 20 µM in assay [2] turned out to be 92%.
`N#Cc1cccc(-c2cc(C(=O)Nc3nnc(-c4ccco4)o3)c3ccccc3n2)c1` [Ia-43, 2-(3-cyanophenyl)-N-[5-(2-furyl)-1,3,4-oxadiazol-2-yl]-4-quinolinecarboxamide]: the inhibition at 100 µM in assay [1] is 71%. The inhibition at 20 µM in assay [2] was determined as 72%.
The corresponding values for `O=C(Nc1nnc(-c2ccco2)o1)c1cc(-c2ccc(F)cc2)nc2ccccc12` [Ia-46, 2-(4-fluorophenyl)-N-[5-(2-furyl)-1,3,4-oxadiazol-2-yl]-4-quinolinecarboxamide] are 80% and 54%.
The corresponding values for `Cc1ccc(-c2cc(C(=O)Nc3nnc(-c4ccco4)o3)c3ccccc3n2)cc1` [Ia-48, N-[5-(2-furyl)-1,3,4-oxadiazol-2-yl]-2-(4-methylphenyl)-4-quinolinecarboxamide] are 92% and 69%.
The corresponding values for `O=C(Nc1nnc(-c2ccco2)o1)c1cc(-c2ccc(OC(F)F)cc2)nc2ccccc12` [Ia-49, 2-(4-difluoromethoxyphenyl)-N-[5-(2-furyl)-1,3,4-oxadiazol-2-yl]-4-quinolinecarboxamide] are > 100% and 51%.
`COc1ccc(-c2cc(C(=O)Nc3nnc(-c4ccco4)o3)c3ccccc3n2)cc1` [Ia-51, N-[5-(2-furyl)-1,3,4-oxadiazol-2-yl]-2-(4-methoxyphenyl)-4-quinolinecarboxamide]: in assay [1], the inhibition at 100 µM was > 100%. Also, the inhibition at 20 µM in assay [2] came out at 56%.
The corresponding values for `COc1ccc(-c2cc(C(=O)Nc3nnc(-c4ccco4)o3)c3ccccc3n2)cc1OC` [Ia-57, N-[5-(2-furyl)-1,3,4-oxadiazol-2-yl]-2-(3,4-dimethoxyphenyl)-4-quinolinecarboxamide] are > 100% and 64%.
As to `O=C(Nc1nnc(-c2ccco2)o1)c1cc(-c2ccc3c(c2)OCO3)nc2ccccc12` [Ia-58, N-[5-(2-furyl)-1,3,4-oxadiazol-2-yl]-2-(3,4-methylenedioxyphenyl)-4-quinolinecarboxamide], the inhibition at 100 µM in assay [1] was > 100%. The inhibition at 20 µM in assay [2] came out at 58%.
As to `Cc1ccc(-c2cc(C(=O)Nc3nnc(-c4ccco4)o3)c3ccccc3n2)o1` [Ia-64, N-[5-(2-furyl)-1,3,4-oxadiazol-2-yl]-2-(5-methyl-2-furyl)-4-quinolinecarboxamide], in assay [1], the inhibition at 100 µM was > 100%. Also, the inhibition at 20 µM in assay [2] stood at 57%.
For `O=C(Nc1nnc(-c2ccco2)o1)c1cc(-c2ccccc2)nc2ccc(Br)cc12` [Ia-68, 6-bromo-N-[5-(2-furyl)-1,3,4-oxadiazol-2-yl]-2-phenyl-4-quinolinecarboxamide], the inhibition at 100 µM in assay [1] is > 100%. The inhibition at 20 µM in assay [2] was 63%.
Take `O=C(Nc1nnc(-c2ccco2)o1)c1cc(-c2ccccc2)nc2ccc(-c3ccccc3)cc12` [Ia-75, N-[5-(2-furyl)-1,3,4-oxadiazol-2-yl]-2,6-diphenyl-4-quinolinecarboxamide]: in assay [1], the inhibition at 100 µM was > 100%. Besides, the inhibition at 20 µM in assay [2] was 64%.
In the same order, the values of `O=C(Nc1nnc(-c2ccco2)o1)c1cc(-c2ccccc2)nc2ccc(-c3ccncc3)cc12` [Ia-76, N-[5-(2-furyl)-1,3,4-oxadiazol-2-yl]-2-phenyl-6-(4-pyridyl)-4-quinolinecarboxamide] are > 100% and 84%.
The corresponding values for `O=C(Nc1nnc(Cc2ccccc2)o1)c1cc(-c2ccccc2)nc2ccccc12` [Ia-83, N-(5-benzyl-1,3,4-oxadiazol-2-yl)-2-phenyl-4-quinolinecarboxamide] are > 100% and 90%.
Take `CCC(=O)Nc1ccc2nc(-c3ccccc3)cc(C(=O)Nc3nnc(-c4ccco4)o3)c2c1` [Ia-93, N-[5-(2-furyl)-1,3,4-oxadiazol-2-yl]-2-phenyl-6-propionylamino-4-quinolinecarboxamide]: the inhibition at 100 µM in assay [1] is 72%. Also, in assay [2], the inhibition at 20 µM was 67%.
As to `O=C(Nc1nnc(-c2ccco2)o1)c1cc(-c2ccccc2)nc2ccc(-c3ccc(O)cc3)cc12` [Ia-98, N-[5-(2-furyl)-1,3,4-oxadiazol-2-yl]-6-(4-hydroxyphenyl)-2-phenyl-4-quinolinecarboxamide], the inhibition at 100 µM in assay [1] is > 100%. For the same compound, the inhibition at 20 µM in assay [2] was determined as 86%.
In the same order, the values of `O=C(Nc1nnc(-c2ccco2)o1)c1cc(-c2ccccc2)nc2ccc(-c3ccsc3)cc12` [Ia-99, N-[5-(2-furyl)-1,3,4-oxadiazol-2-yl]-6-(3-thienyl)-2-phenyl-4-quinolinecarboxamide] are 73% and 93%.
The corresponding values for `O=C(Nc1nnc(-c2ccco2)o1)c1cc(-c2ccccc2)nc2ccc(-c3cccnc3)cc12` [Ia-100, N-[5-(2-furyl)-1,3,4-oxadiazol-2-yl]-6-(3-pyridyl)-2-phenyl-4-quinolinecarboxamide] are 92% and 76%.
With `O=C(Nc1nnc(-c2ccccc2)o1)c1cc(-c2ccccc2)nc2ccc(Cl)cc12` [Ia-110, 6-chloro-2-phenyl-N-(5-phenyl-1,3,4-oxadiazol-2-yl)-4-quinolinecarboxamide], the inhibition at 100 µM in assay [1] is 89%. The inhibition at 20 µM in assay [2] was 65%.
Turning to `O=C(Nc1nnc(-c2ccccc2)o1)c1cc(-c2ccccc2)nc2ccc(OC(F)(F)F)cc12` [Ia-111, N-(5-phenyl-1,3,4-oxadiazol-2-yl)-2-phenyl-6-trifluoromethoxy-4-quinolinecarboxamide], in assay [1], the inhibition at 100 µM is > 100%. In addition, the inhibition at 20 µM in assay [2] was 87%.
For `O=C(Nc1nnc(-c2ccccc2Cl)o1)c1cc(-c2ccccc2)nc2ccc(Cl)cc12` [Ia-112, 6-chloro-N-[5-(2-chlorophenyl)-1,3,4-oxadiazol-2-yl]-2-phenyl-4-quinolinecarboxamide], in assay [1], the inhibition at 100 µM was > 100%. Moreover, the inhibition at 20 µM in assay [2] was 69%.
The corresponding values for `O=C(Nc1nnc(-c2ccccc2Cl)o1)c1cc(-c2ccccc2)nc2ccc(OC(F)(F)F)cc12` [Ia-113, N-[5-(2-chlorophenyl)-1,3,4-oxadiazol-2-yl]-2-phenyl-6-trifluoromethoxy-4-quinolinecarboxamide] are > 100% and 76%.
On to `COc1ccc(-c2nnc(NC(=O)c3cc(-c4ccccc4)nc4ccc(OC(F)(F)F)cc34)o2)cc1` [Ia-117, N-[5-(4-methoxyphenyl)-1,3,4-oxadiazol-2-yl]-2-phenyl-6-trifluoromethoxy-4-quinolinecarboxamide], for which the inhibition at 100 µM in assay [1] is 87%. The inhibition at 20 µM in assay [2] was 85%.
Regarding `O=C(Nc1nnc(-c2cccs2)o1)c1cc(-c2ccccc2)nc2ccccc12` [Ia-a, 2-phenyl-N-[5-(2-thienyl)-1,3,4-oxadiazol-2-yl]-4-quinolinecarboxamide], the inhibition at 100 µM in assay [1] stood at 86%. For the same compound, the inhibition at 20 µM in assay [2] was found to be 89%.
In the same order, the values of `COc1ccccc1-c1nnc(NC(=O)c2cc(-c3ccccc3)nc3ccccc23)o1` [Ia-c, N-[5-(2-methoxyphenyl)-1,3,4-oxadiazol-2-yl]-2-phenyl-4-quinolinecarboxamide] are 67% and 97%.
For `O=C(Nc1nnc(Br)s1)c1cc(-c2ccccc2)nc2ccccc12` [Ib-2, N-(5-bromo-1,3,4-thiadiazol-2-yl)-2-phenyl-4-quinolinecarboxamide], the inhibition at 100 µM in assay [1] was > 100%. Besides, the inhibition at 20 µM in assay [2] was 79%.
In the same order, the values of `O=C(Nc1nnc(-c2ccncc2)s1)c1cc(-c2ccccc2)nc2ccc(OC(F)(F)F)cc12` [Ib-8, 2-phenyl-N-[5-(4-pyridyl)-1,3,4-thiadiazol-2-yl]-6-trifluoromethoxy-4-quinolinecarboxamide] are 65% and 80%.
The corresponding values for `CC(C)Oc1cccc(-c2cc(C(=O)Nc3nnc(-c4ccncc4)s3)c3ccccc3n2)c1` [Ib-b, 2-(3-isopropoxyphenyl)-N-[5-(4-pyridyl)-1,3,4-thiadiazol-2-yl]-4-quinolinecarboxamide] are > 100% and 97%.
